Each structure is given as a SMILES string.

These results are taken from article PMC9189214 (Poultry Science, 2022).

Data set [1] is described as follows: Pharmacokinetic analyses of sulfadiazine and florfenicol in broilers. Particulars: florfenicol 20 mg/kg oral, 4-wk broilers. Format: in vivo.
The subject of another data set is chicken BCRP. Put plainly: Bidirectional transport experiment in MDCK-chAbcg2 cells. It is filed as in vitro ADME. The conditions noted are these: net efflux ratio (NER), florfenicol 20 μM, without allicin.
The nature of data set [2]: Cell viability used to select the allicin concentration. Format: cell-based. The conditions noted are these: dog, MDCK-chAbcb1 or MDCK-chAbcg2 cells.

The efflux ratio is the permeability from basolateral to apical divided by that in the opposite direction, in the common usage. As for `CS(=O)(=O)c1ccc([C@@H](O)[C@@H](CF)NC(=O)C(Cl)Cl)cc1` [florfenicol], in data set [1] (Allicin (32 mg/kg) for 4 wk), the CLz was found to be 18.8 ± 8 mL/min/kg and the Vz is reported as 7.61 ± 2.89 L/kg. Moreover, in data set [1] (Control (no allicin)), the CLz was found to be 25.2 ± 8.17 mL/min/kg and the Vz was 8.57 ± 3.90 L/kg. Moreover, the efflux ratio at 20 μM with chicken BCRP was over 2.
In general, viability refers to the share of living cells, or the viability signal relative to a control. High values mean better survival, low ones a greater loss of cells. Compound `C=CCS[S+]([O-])CC=C` (stereo not drawn) [allicin, Allicin] had a viability at 5 μM in data set [2] of over 90%.
